For this assay, the system named is L6 muscle cells. Kind of assay: Insulin-stimulated glucose uptake (2-NBDG) in L6 muscle cells. Type of assay: cell-based. Conditions: for glucose uptake relative to control cells: insulin stimulated, FIG. 5, V 500 IU, N 15 mg/ml, LA 0.5 mM; for increase in glucose uptake after insulin pulse over control cells: 100 nM insulin, FIG. 4. The procedure: The effect of each of vitamin D3, niacinamide and lipoic acid separately, and the fixed dose combination of vitamin D3, niacinamide and lipoic acid composition provided herein, were evaluated for the ability of each to have an effect on glucose uptake in an in vitro model. A goal was to improve insulin's ability to increase the uptake of glucose by L6 muscle cells.
Vitamin D3 was utilized to increase GLUT4 levels since this vitamin has been shown before to increase GLUT4 levels in muscle, and niacinamide was used to increase cellular NAD levels (El-Fakhri et al., Horm Res Paediact 81:363-378 (2014); Manna et al., J Biol Chem 287 (50): 42324-42332 (2012); Garten, Endocrinologist, Issue 135 (2020); and Fan et al., J Diabetes Investig. 11 (6): 1403-1419 (2020)). Glucose uptake studies using L6 cells were performed. L6 cells (ATCC CLR-1458; Rockville, MD) were maintained in Dulbecco's modified Eagle's medium (DMEM) supplemented with 10% Fetal Bovine Serum (FBS) and 100 μg/mL penicillin and streptomycin, at 37° C. in an atmosphere of 5% CO2. 2-(N-[7-nitrobenz-2-oxa-1, 3-diazol-4-yl]amino)-2-deoxyglucose (2-NBDG) (Molecular Probes-Invitrogen, CA, USA) was used to assess glucose uptake in the L6 cells. The cells were kept in glucose free medium for half an hour before insulin stimulation. The cells were then stimulated with 100 nM insulin for 10 and 20 min and incubated with 10 μM of 2-NBDG for 15 min. The reaction was stopped by washing with cold PBS three times and the cells were lysed using 0.1% Triton X. The lysate was then used to read florescence at […]. The data is reported in FIG. 4 as percent of control cells (no treatment, incubation with media).
Experiment conducted n=5. Student's t-tests were performed to compare between the present glucose uptake shown by control, vitamin D, niacinamide, and their combination at different time points.
Because the TCA cycle and glucose metabolism in the mitochondria generate oxidative stress, lipoic acid, an antioxidant (Golbidi et al., Front Pharmacol, Vol. 2, Article 69 (2011), 15 pages) which is known to enter the mitochondria, was tested to determine if it could further enhance glucose uptake. The following combinations were tested for improvements in muscle cell glucose uptake stimulated by insulin: Vitamin D3 plus Niacinamide plus or minus Lipoic acid alone.

On to `O=C(O)CCCCC1CCSS1` (racemic) [Lipoic acid, DL-alpha-lipoic acid], for which the “glucose uptake relative to control cells” value is reported as “did not increase glucose uptake”. With `NC(=O)c1cccnc1` [niacinamide], the “increase in glucose uptake after insulin pulse over control cells” value (10 minutes) was “about 3 fold” and the “increase in glucose uptake after insulin pulse over control cells” value (20 minutes) is “only little”. Taken in the same sequence, the figures for `C=C1CC[C@H](O)C/C1=C/C=C1\CCC[C@]2(C)[C@@H]([C@H](C)CCCC(C)C)CC[C@@H]12` [vitamin D3, cholecalciferol] were “about 6 fold” and “less so”.

With Vitamin E, the “glucose uptake relative to control cells” value was “had no effect”.
